The record followed here is PubChem BioAssay (NCI).

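Five compound concentrations were applied to cells in 96-well plates for 48 hours; endpoints were derived by simple linear interpolation of the resulting dose-response curve. TGI: total growth inhibition.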

Some test systems named below: DMS 273 small cell lung; LXFL 529 NSCLC; XF 498 CNS; SNB-78 CNS; RXF-631 renal; P388 leukemia; P388/ADR leukemia; SN12K1 renal.
Assay in all cases: NCI tumour cell line growth inhibition, 48 h

On to `Cc1c(Cl)c2ccccc2n1S(=O)(=O)c1ccccc1`, for which the TGI with DMS 273 small cell lung, with LXFL 529 NSCLC and with XF 498 CNS was above 100 µM each time.

For the compound `CC(C)(C)N=NNc1cn(C2OC(CO)C(O)C2O)c(=O)[nH]c1=O` (configuration not stated), the TGI in the assay on DMS 273 small cell lung, with LXFL 529 NSCLC and in the assay on SNB-78 CNS was above 100 µM each time.

`CN1CCCC2(CCCc3ccccc32)C1` (configuration not stated): the TGI in the assay with DMS 273 small cell lung, in the assay on LXFL 529 NSCLC, in the assay with RXF-631 renal and in the assay on SNB-78 CNS was above 100 µM in each case.

On to `CCc1cc(Cc2cc(Cl)c(NC(=O)C(=O)C3NC(=O)NC3=O)c(CC)c2)cc(Cl)c1NC(=O)C(=O)C1NC(=O)NC1=O` (configuration not stated), for which the TGI with DMS 273 small cell lung is 41.3 µM; with LXFL 529 NSCLC it was above 100 µM; in the assay on SNB-78 CNS, above 100 µM.

On to `Cc1ccc(S(=O)(=O)N/N=C(\c2nc3ccc(Cl)cc3[nH]c2=O)C(O)c2cccc([N+](=O)[O-])c2)cc1` (configuration not stated), for which the TGI in the assay on DMS 273 small cell lung, with LXFL 529 NSCLC, in the assay with RXF-631 renal, in the assay with SNB-78 CNS and in the assay with XF 498 CNS was above 100 µM in each case.

In the case of `Clc1ccc(SC(/C=C/NNC2=NC(c3ccccc3)C(c3ccccc3)=NN2)c2ccccc2)cc1` (configuration not stated), the TGI in the assay on DMS 273 small cell lung is above 100 µM; with RXF-631 renal, above 100 µM; in the assay on SNB-78 CNS it was above 100 µM; with XF 498 CNS it was 54.6 µM.

Take `COc1ccc(-c2cc(=O)c3cc4c(cc3[nH]2)OCO4)cc1OC`: the TGI in the assay with DMS 273 small cell lung, in the assay on LXFL 529 NSCLC, in the assay on SNB-78 CNS and in the assay with XF 498 CNS was above 100 µM each time.

For the compound `O=c1[nH]c(=O)n(C2OC(COP(=O)(O)OP(=O)(O)OC3OC(CO)C(O)C(O)C3O)C(O)C2O)cc1F` (configuration not stated), the TGI in the assay with LXFL 529 NSCLC was above 100 µM; in the assay on RXF-631 renal, above 100 µM; in the assay on SNB-78 CNS, above 100 µM; with XF 498 CNS it was 16.1 µM.

For `O=S(=O)(CCBr)CCBr`, the TGI with DMS 273 small cell lung came to 15.1 µM; in the assay with P388 leukemia, 5.67 µM; in the assay with P388/ADR leukemia it was 12.1 µM; with SN12K1 renal, 19.7 µM.

On to `O=C(c1ccc(Cl)cc1)c1ccc(OCCCOc2ccc(C(=O)c3ccc(Cl)cc3)cc2)cc1`, for which the TGI with DMS 273 small cell lung, in the assay with LXFL 529 NSCLC and in the assay with XF 498 CNS was above 100 µM each time.

For the compound `O=C1Nc2ccccc2C12CCNC2Cc1ccccc1` (configuration not stated), the TGI with DMS 273 small cell lung, in the assay with LXFL 529 NSCLC and in the assay on XF 498 CNS was above 100 µM each time.

For the compound `CCCN(CCCC(NC(C)=O)C(=O)NCc1ccccc1)C(=O)N(CCCl)N=O` (configuration not stated), the TGI in the assay on DMS 273 small cell lung is 24.6 µM; with LXFL 529 NSCLC, 34 µM; in the assay on RXF-631 renal it was above 77.6 µM; with SNB-78 CNS, 71 µM; in the assay with XF 498 CNS, 30.3 µM.

For `Cc1nc(Nc2ccc(Cl)cc2)sc1C(=O)NNc1ccc([N+](=O)[O-])cc1[N+](=O)[O-]`, the TGI is 39.3 µM in the assay on DMS 273 small cell lung, 30.9 µM with LXFL 529 NSCLC, above 100 µM in the assay on SNB-78 CNS and 32.4 µM in the assay on XF 498 CNS.

As to `COC(=O)/C=C1/CCC(C(=O)OC)N1` (configuration not stated), the TGI in the assay on DMS 273 small cell lung, in the assay on LXFL 529 NSCLC, with SNB-78 CNS and in the assay with XF 498 CNS was above 100 µM each time.

Take `O=C(/N=C/c1c(O)c2ccccc2oc1=O)Nc1ccccc1`: the TGI in the assay on DMS 273 small cell lung, in the assay with LXFL 529 NSCLC, in the assay on SNB-78 CNS and in the assay with XF 498 CNS was above 100 µM in each case.

Regarding `COc1cc2c(cc1OC)C(C(CO)CO)N(CC(O)CCl)CC2` (configuration not stated), the TGI in the assay on DMS 273 small cell lung, in the assay with LXFL 529 NSCLC, in the assay on RXF-631 renal, with SNB-78 CNS and in the assay with XF 498 CNS was above 100 µM in each case.

Regarding `COc1ccc2c(c1)N1CCc3cc(OC)c(OC)cc3C1C2` (configuration not stated), the TGI with DMS 273 small cell lung, in the assay on LXFL 529 NSCLC, with SNB-78 CNS and in the assay with XF 498 CNS was above 100 µM in each case.

As to `Cc1cccc2c(=O)c([Se]c3coc4c(C)cccc4c3=O)coc12`, the TGI is above 100 µM in the assay with DMS 273 small cell lung, 29.2 µM with LXFL 529 NSCLC, 30.4 µM with SNB-78 CNS and 34.8 µM with XF 498 CNS.

As to `C[C@]12CCC(=O)C=C1CC[C@@H]1[C@@H]2[C@@H](O)C[C@@]2(C)[C@H]1CC[C@]2(O)C(=O)COC(=O)COCC(=O)O`, the TGI in the assay with DMS 273 small cell lung, with SNB-78 CNS and with XF 498 CNS was above 100 µM each time.

As for `NC(CCCC(N)P(=O)(O)c1ccccc1)P(=O)(O)c1ccccc1` (configuration not stated), the TGI in the assay on DMS 273 small cell lung, in the assay on LXFL 529 NSCLC, in the assay on SNB-78 CNS and in the assay on XF 498 CNS was above 261 µM each time.
